Legend:
[1] = tested on: TNF-α (NF-κB pathway, THP-1 cells); assay: TNF-α Assay (IC50); assay type: cell-based, human; conditions: Homo sapiens, 600 ng/mL LPS, 3 hours
How it was run: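 Supernatant TNF-α quantified by ELISA after 3 h stimulation with 600 ng/mL LPS at 37 °C, following 30 min compound preincubation. Cells: IFN-differentiated (25 ng/mL, 24 h) THP-1 macrophages, 40,000/well, serum-free. IC50 by sigmoidal fit of % inhibition, with TPCA-1 as 100% control.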

[2] = tested on: NLRP3 inflammasome (IL-1β production in THP-1 cells); assay: IL-1β TR-FRET Assay (percentage of inhibition at 300 nM, 6 μM or 10 μM); assay type: cell-based, human; conditions: Homo sapiens, LPS priming, ATP activation; for inhibition at 0.3 µM: THP-1, 300 nM, read-out: IL-1β inhibitory rate at 300 nM (%); for inhibition at 10 µM: THP-1, 10 μM, read-out: IL-1β inhibitory rate at 10 μM (%); for inhibition at 6 µM: THP-1, 6 μM, read-out: IL-1β inhibitory rate at 6 μM (%)
How it was run: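 Percent inhibition of IL-1β used DMSO wells as 0% and 3 μM MCC-950 wells as full inhibition, with supernatant read by HTRF. Beforehand, IFN-γ-differentiated (25 ng/mL, 24 h), LPS-primed (50 ng/mL, 24 h) THP-1 cells received compound 30 min before inflammasome activation by 20 mM ATP for 2 h.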

| Compound | IC50 [1] [µM] | inhibition at 0.3 µM [2] [%] | inhibition at 10 µM [2] [%] | inhibition at 6 µM [2] [%] |
| --- | --- | --- | --- | --- |
| Cc1cc(C2CC2)cc(C)c1-n1cc2c(=O)[nH]c(O[C@H]3CCOC3)nc2n1 [Example 286, 2-(4-cyclopropyl-2,6-dimethylphenyl)-6-{[(3S)-oxolan-3-yl]oxy}-2,5-dihydro-4H-pyrazolo [3,4-d]pyrimidin-4-one] | > 30 | – | – | 98 |
| COCCOc1nc2nn(-c3c(C)cc(Br)cc3C(F)F)cc2c(=O)[nH]1 [Example 215, 2-[4-bromo-2-(difluoromethyl)-6-methylphenyl]-6-(2-methoxyethoxy)-2,5-dihydro-4H-pyrazolo[3,4-d]pyrimidin-4-one] | > 30 | 105 | – | – |
| CCOc1nc2nn(-c3c(C)cc(C4CC4)nc3C(F)(F)F)cc2c(=O)[nH]1 [Example 303, 2-[6-cyclopropyl-4-methyl-2-(trifluoromethyl)pyridin-3-yl]-6-ethoxy-2,5-dihydro-4H-pyrazolo[3,4-d]pyrimidin-4-one] | > 30 | – | – | 100 |
| CCOc1nc2nn(-c3c(F)cc(C)cc3CC)cc2c(=O)[nH]1 [Example 76, 6-ethoxy-2-(2-ethyl-6-fluoro-4-methylphenyl)-2,5-dihydro-4H-pyrazolo[3,4-d]pyrimidin-4-one] | > 30 | 94 | – | – |
| CCCOc1nc2nn(-c3c(C)cc(C)cc3O)cc2c(=O)[nH]1 [Example 4, 2-(2-hydroxy-4,6-dimethylphenyl)-6-propoxy-2,5-dihydro-4H-pyrazolo[3,4-d]pyrimidin-4-one] | > 30 | 92 | – | – |
| Cc1cc(C)c(-n2cc3c(=O)[nH]c(-c4ccc(F)cn4)nc3n2)c(O)c1 [Example 13, 6-(5-fluoropyridin-2-yl)-2-(2-hydroxy-4,6-dimethylphenyl)-2,5-dihydro-4H-pyrazolo[3,4-d]pyrimidin-4-one] | > 30 | 99 | – | – |
| Cc1cc(C)c(-n2cc3c(=O)[nH]c(C4CCCCO4)nc3n2)c(O)c1 (stereo not drawn) [Example 18, 2-(2-hydroxy-4,6-dimethylphenyl)-6-(oxan-2-yl)-2,5-dihydro-4H-pyrazolo[3,4-d]pyrimidin-4-one] | > 30 | 99 | – | – |
| Cc1cc(C)c(-n2cc3c(=O)[nH]c(C4CCCO4)nc3n2)c(O)c1 (stereo not drawn) [Example 29, 2-(2-hydroxy-4,6-dimethylphenyl)-6-(oxolan-2-yl)-2,5-dihydro-4H-pyrazolo[3,4-d]pyrimidin-4-one] | > 30 | 97 | – | – |
| Cc1ccc(-n2cc3c(=O)[nH]c(OCC(C)OCc4ccccc4)nc3n2)c(C)c1 (racemic) [Example 99, 6-[2-(benzyloxy)propoxy]-2-(2,4-dimethylphenyl)-2,5-dihydro-4H-pyrazolo[3,4-d]pyrimidin-4-one] | > 30 | 41 | – | – |
| CCOc1nc2nn(-c3c(F)cc(OC)cc3Br)cc2c(=O)[nH]1 [Example 157, 2-(2-bromo-6-fluoro-4-methoxyphenyl)-6-ethoxy-2,5-dihydro-4H-pyrazolo[3,4-d]pyrimidin-4-one] | > 30 | 102 | – | – |
| CCOc1nc2nn(-c3c(C)cc(C4CC4)cc3COC)cc2c(=O)[nH]1 [Example 164, 2-[4-cyclopropyl-2-(methoxymethyl)-6-methylphenyl]-6-ethoxy-2,5-dihydro-4H-pyrazolo[3,4-d]pyrimidin-4-one] | > 30 | 95 | – | – |
| CCOc1nc2nn(-c3c(C)ccc(C)c3F)cc2c(=O)[nH]1 [Example 101, 6-ethoxy-2-(2-fluoro-3,6-dimethylphenyl)-2,5-dihydro-4H-pyrazolo[3,4-d]pyrimidin-4-one] | > 30 | – | 95 | – |
| COC[C@@H](C)Oc1nc2nn(-c3c(F)cc(C4CC4)cc3C(F)F)cc2c(=O)[nH]1 [Example 207, 2-[4-cyclopropyl-2-(difluoromethyl)-6-fluoro-phenyl]-6-{[(2R)-1-methoxypropan-2-yl]oxy}-2,5-dihydro-4H-pyrazolo[3,4-d]pyrimidin-4-one] | > 30 | 98 | – | – |
| CCOc1nc2nn(-c3c(C)cc(C)cc3Br)cc2c(=O)[nH]1 [Example 118, 2-(2-bromo-4,6-dimethylphenyl)-6-ethoxy-2,5-dihydro-4H-pyrazolo[3,4-d]pyrimidin-4-one] | > 30 | 101 | – | – |
| Cc1ccc(-n2cc3c(=O)[nH]c(Oc4ccccc4)nc3n2)c(C)c1 [Example 100, 2-(2,4-dimethylphenyl)-6-phenoxy-2,5-dihydro-4H-pyrazolo[3,4-d]pyrimidin-4-one] | > 30 | – | 100 | – |

Now from value to molecule, other results behind:

| IC50 [1] [µM] | Compound | inhibition at 0.3 µM [2] [%] | inhibition at 10 µM [2] [%] | inhibition at 6 µM [2] [%] |
| --- | --- | --- | --- | --- |
| > 30 | COc1ccc(-c2nc3nn(-c4c(C)cc(C)cc4O)cc3c(=O)[nH]2)nc1 [Example 21, 2-(2-hydroxy-4,6-dimethylphenyl)-6-(5-methoxypyridin-2-yl)-2,5-dihydro-4H-pyrazolo[3,4-d]pyrimidin-4-one] | 98 | – | – |
| > 30 | COc1nc2nn(-c3c(C)cc(C4(F)CC4)cc3F)cc2c(=O)[nH]1 [Example 208, 2-[2-fluoro-4-(1-fluorocyclopropyl)-6-methylphenyl]-6-methoxy-2,5-dihydro-4H-pyrazolo[3,4-d]pyrimidin-4-one] | 102 | – | – |
| > 30 | Cc1cc(C)c(-n2cc3c(=O)[nH]c(C(C)C)nc3n2)c(O)c1 [Example 10, 2-(2-hydroxy-4,6-dimethylphenyl)-6-(propan-2-yl)-2,5-dihydro-4H-pyrazolo[3,4-d]pyrimidin-4-one] | 98 | – | – |
| > 30 | CCOc1nc2nn(-c3c(Br)cc(C)c(F)c3F)cc2c(=O)[nH]1 [Example 97, 2-(6-bromo-2,3-difluoro-4-methylphenyl)-6-ethoxy-2,5-dihydro-4H-pyrazolo[3,4-d]pyrimidin-4-one] | 66 | – | – |
| > 30 | Cc1cc(C)c(-n2cc3c(=O)[nH]c(C4CCCCO4)nc3n2)c(O)c1C (stereo not drawn) [Example 81, 2-(2-hydroxy-3,4,6-trimethylphenyl)-6-(oxan-2-yl)-2,5-dihydro-4H-pyrazolo[3,4-d]pyrimidin-4-one] | 97 | – | – |
| > 30 | CCOc1nc2nn(-c3c(C)cc(C)cc3C#N)cc2c(=O)[nH]1 [Example 152, 2-(6-ethoxy-4-oxo-4,5-dihydro-2H-pyrazolo[3,4-d]pyrimidin-2-yl)-3,5-dimethylbenzonitrile] | 92 | – | – |
| > 30 | CCOc1nc2nn(-c3c(C)cc(C4CC4)cc3C)cc2c(=O)n1C [Example 141, 2-(4-cyclopropyl-2,6-dimethylphenyl)-6-ethoxy-5-methyl-2,5-dihydro-4H-pyrazolo[3,4-d]pyrimidin-4-one] | – | 95 | – |
| > 30 | Cc1cc(C2(F)CC2)cc(C)c1-n1cc2c(=O)[nH]c(COC(F)F)nc2n1 [Example 263, 6-[(difluoromethoxy)methyl]-2-[4-(1-fluorocyclopropyl)-2,6-dimethylphenyl]-2,5-dihydro-4H-pyrazolo[3,4-d]pyrimidin-4-one] | – | – | 104 |
| > 30 | Cc1cc(C)c(-n2cc3c(=O)[nH]c(CCC(C)(F)F)nc3n2)c(O)c1 [Example 40, 6-(3,3-difluorobutyl)-2-(2-hydroxy-4,6-dimethylphenyl)-2,5-dihydro-4H-pyrazolo[3,4-d]pyrimidin-4-one] | 100 | – | – |
